Data published in US6541453B2, “Peptide derivatives” (Syngenta Limited, priority 1996, dated 2003).
Like-named read-outs stand apart in the source and are kept apart here.

Columns and labels:
[1] = target: T1, HLA-DR1 (Homo sapiens, UniProt P01903+P01911, A100R/D57E/F55L/F60I/F76Y/I96L/L162R/M171V/P40L/Q125E/R42F/V115G/Y59C); assay: Variant to Test A: peptide selectivity binding assay
T1 construct: endogenous in cells; host or cells: Hom 2 cell line
Method: The method used was a modification of that described by Gorga et al, 1987, J.Biol.Chem. 262, 16087-16094. Human HLA-DR antigens were purified from various cell lines by immunoaffinity chromatography. Briefly, 1×10^9-5×10^9 pelleted cells of the appropriate cell line selected from Hom 2 (source of DR1), BBF (source of DR2), AVL-B (source of DR3), JAH (source of DR4Dw4), JHAF (source of DR4Dw13) or PE117 (source of DR4Dwl4) were solubilised at approximately 4° C. in 50 ml of 5 mM EDTA (sodium salt), 50 mM Tris-HCL pH 7.4, 2% NP40, 150 mM NaCl, 1 mM iodoacetamide, 1 mM PMSF, by homogenisation with 10 strokes of a teflon glass homogeniser. […] Protein content was determined by a Biorad protein assay and purity by SDS-PAGE electrophoresis.
200 nM biotin-FHA307-320 in phosphate buffered saline (PBS) was incubated with either purified HLA-DR1, DR2, DR4Dw4, DR4Dw13 or DR4Dwl4 (2-20 μg/ml) in V-well microtitre plates (Nunc) with or without inhibitor peptides in assay buffer (PBS, 0.01% NP40 (Sigma.)) For DR3 inhibition, 400 nM Biotin-Ahx-(D)Ala-Ala-Ala-Cha-[…](D)Ala-OH [SEQ ID No. 14] was incubated with purified DR3 (20 μg/ml.), and incubated as above. After 48 hours, the incubates were treated, and absorbance readings taken as described in Test A. The inhibitory activity of peptides, expressed as IC50 values, was calculated using Microcal Origin software on a PC.

[2] = Peptide content of extruded polymer depot formulation (loss on extrusion); format: physicochemical
Method: About 20 mg of peptide is accurately weighed and sufficient polymer (50/50% molar poly(D,L-lactic acid/glycolic acid) copolymer of approximate weight average molecular weight 20 kD and approximate polydispersity of 1.7 as determined by size exclusion chromatography relative to polystyrene standards) added to produce an approximate 20% w/w mixture. This is dissolved in anhydride-free glacial acetic acid to produce an approximate 10% w/v solution. The solution is freeze dried and the resulting freeze dried product is stored under vacuum prior to use.
About 100 mg of freeze dried material is loaded into the barrel of a small laboratory extruder and the plunger pushed down to consolidate the sample. The extruder is heated to between 90 and 95 ° C. and held at this temperature for 10 minutes before the freeze dried material is extruded under pressure to give a cylindrical extrudate of approximately 1 mm in diameter. […]
Each standard is filtered through a 5 μm Millex PTFE filter and an aliquot of filtrate, together with aliquots of the solutions A, analysed by HPLC using duplicate sample injections. The peptide content of the extruded polymer depot formulation of peptide is calculated from the concentration of peptide in solutions A, which is determined by comparing the area of the peptide peak in solutions A with the area of the peptide peak from the standard solutions.

[3] = Aqueous stability of peptide in McIlvaine's citric acid-phosphate buffer
[4] = Degradation of peptide on in vitro release from an extruded polymer depot

IC50 [1] | aqueous stability ([3]; pH3) | aqueous stability ([3]; pH7.6) | degradation on release from depot formulation [4] | aqueous stability (pH3) | aqueous stability (pH7.6) | Structure (SMILES) | loss due to degradation on extrusion [2]
> 100 µM | good aqueous stability | good aqueous stability | minimal degradation on release |  |  | COCCN(CCOC)C(=O)CN(CC(=O)N(CCOC)CCOC)C(=O)C[C@H](NC(=O)[C@H](C)NC(=O)[C@H](CCCNC(=N)N)NC(=O)[C@H](C)NC(=O)CCCCc1ccccc1)C(=O)N[C@H](C(=O)N[C@@H]1CCN([C@@H](C)C(=O)N[C@@H](C)C(=O)Nc2ccc(CC(N)=O)cc2)C1=O)[C@@H](C)O [Example 3, Phv-Ala-Arg-Ala-II-Thr-IIIa-Ala-Papa-NH2] | minimal loss due to degradation on extrusion
> 100 µM |  |  |  | good aqueous stability | good aqueous stability | COCCOCCOCCN(CCOCCOCCOC)C(=O)CN(CC(=O)N(CCOCCOCCOC)CCOCCOCCOC)C(=O)C[C@H](NC(=O)[C@H](C)NC(=O)[C@H](C)NC(=O)[C@H](CCCNC(=N)N)NC(=O)CCCCc1ccccc1)C(=O)N[C@H](C(=O)N[C@@H]1CCN([C@@H](C)C(=O)N[C@@H](C)C(=O)Nc2ccc(CC(N)=O)cc2)C1=O)[C@@H](C)O [Example 6, Phv-Arg-Ala-Ala-II-Thr-IIIa-Ala-Papa-NH2] | minimal loss due to degradation on extrusion
